Results published in patent US8211945B2, “Carba-sugar amine derivative and glycolipid metabolic disorder treating agent containing the same as active ingredient” (Seikagaku Corporation, priority 2001, dated 2012).
Positions count from the first letter of the chain named.

Columns and labels:
Assay in all cases: Mutant β-galactosidase activity in model cells, 4 days culture
Type in all cases: cell-based
[1] = biological target: T1, human mutant β-galactosidase R457Q (Homo sapiens, UniProt P16278, R457Q)
T1 construct: expressed in transfected cells; host or cells: SV40-immortalized skin fibroblasts of a β-galactosidase-deficient knockout mouse
T1 sequence (P16278 29-677 R457Q): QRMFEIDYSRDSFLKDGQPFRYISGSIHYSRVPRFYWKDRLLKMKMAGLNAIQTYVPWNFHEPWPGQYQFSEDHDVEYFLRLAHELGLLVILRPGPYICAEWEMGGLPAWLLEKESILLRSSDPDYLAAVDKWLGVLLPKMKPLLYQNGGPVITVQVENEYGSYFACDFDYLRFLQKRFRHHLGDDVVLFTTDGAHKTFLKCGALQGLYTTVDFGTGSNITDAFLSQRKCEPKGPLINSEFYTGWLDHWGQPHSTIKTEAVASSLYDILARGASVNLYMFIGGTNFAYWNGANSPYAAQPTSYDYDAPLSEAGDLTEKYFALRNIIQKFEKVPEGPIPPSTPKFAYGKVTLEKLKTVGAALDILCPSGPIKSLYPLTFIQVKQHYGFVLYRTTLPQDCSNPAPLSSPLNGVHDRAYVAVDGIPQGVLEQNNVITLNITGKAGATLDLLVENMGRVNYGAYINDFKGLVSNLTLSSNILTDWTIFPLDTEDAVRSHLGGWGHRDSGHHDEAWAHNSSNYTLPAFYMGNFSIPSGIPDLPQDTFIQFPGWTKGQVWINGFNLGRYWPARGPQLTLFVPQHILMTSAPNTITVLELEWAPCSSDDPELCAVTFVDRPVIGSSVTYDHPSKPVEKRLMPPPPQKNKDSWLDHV
Source text: (§1) Cultured skin fibroblasts of a β-galactosidase-deficient knockout mouse was immortalized by introducing an SV40 viral gene, and enzyme genes integrated into pSV2neo and an expression vector were also introduced simultaneously, thereby establishing a model cell (Brain Dev., 23(5), 284-287, 2001). The genes used are human normal (GP8) and mutant β-galactosidase gene Y316C, G123R (infantile GM1-gangliosidosis), R201C (juvenile GM1-gangliosidosis), 151T, T82M, R201H, R263S, R457Q (adult GM1-gangliosidosis), W273L, Y83H, R482H and R482C (Morquio-B disease) (Hum. Genet., 93(2), 109-114, 1994).
(§2) As a control substance, 0.5 mM N-(n-butyl)-deoxygalactonojirimycin (NB-DGJ: The Journal of Biological Chemistry, 269, 27108-27114 (1994)) was used, and the substance 18 of the present invention was used in an amount of 0.2 μM.
(§3) Specifically, after culturing the model cell for 4 days using a cell culture medium (10% FCS DMEM) containing the substance 18 of the present invention, the resulting cells were recovered and diluted such that the amount of protein in the suspension became a predetermined level, and then enzyme activity in the diluted suspension was measured. Using 4-methylumbelliferyl-β-D-galactopyranoside as the fluorescent substrate, the enzyme activity during 30 minutes was measured at 37° C.

[2] = biological target: T2, human mutant β-galactosidase R482H (Homo sapiens, UniProt P16278, R482H)
T2 construct: expressed in transfected cells; host or cells: SV40-immortalized skin fibroblasts of a β-galactosidase-deficient knockout mouse
T2 sequence (P16278 29-677 R482H): T1 sequence (P16278 29-677 R457Q) with Q429R, R454H
Source text: as §1, §2, §3

[3] = biological target: T3, human mutant β-galactosidase W273L (Homo sapiens, UniProt P16278, W273L)
T3 construct: expressed in transfected cells; host or cells: SV40-immortalized skin fibroblasts of a β-galactosidase-deficient knockout mouse
T3 sequence (P16278 29-677 W273L): T1 sequence (P16278 29-677 R457Q) with W245L, Q429R
Source text: as §1, §2, §3

Row | Structure (SMILES) | enzyme activity increased in comparison with the control ([1]; R457Q, 0.2 μM) | Relative ratio (×100%) ([1]; R457Q, substance 18 vs control) | enzyme activity ([1]; transferred gene R457Q, 0.2 μM, 4 days) | Relative ratio (×100%) ([2]; R482H, substance 18 vs control) | enzyme activity ([2]; transferred gene R482H, 0.2 μM, 4 days) | enzyme activity increased in comparison with the control ([3]; W273L, 0.2 μM) | Relative ratio (×100%) ([3]; W273L, substance 18 vs control) | enzyme activity ([3]; transferred gene W273L, 0.2 μM, 4 days) | enzyme activity, Control ([1]; transferred gene R457Q, control substance 0.5 mM NB-DGJ) | enzyme activity, Control ([2]; transferred gene R482H, control substance 0.5 mM NB-DGJ) | enzyme activity, Control ([3]; transferred gene W273L, control substance 0.5 mM NB-DGJ)
1 | CCCCCCCCN[C@@H]1C=C(CO)[C@H](O)C(O)[C@@H]1O (stereo partly drawn) [Substance 18, N-octyl-5a-carba-α-L-arabino-hexo-5(5a)-enopyranosylamine] | ≥ 150% | 2.42 ×100% | 14.17 | 2.50 ×100% | 1.24 | ≥ 150% | 1.50 ×100% | 17.71 | – | – | –
2 | CCCCN1C[C@H](O)[C@@H](O)[C@@H](O)[C@H]1CO [Control, N-(n-butyl)-deoxygalactonojirimycin, reference compound] | – | – | – | – | – | – | – | – | 5.84 | 0.50 | 11.83
